Laboratory results published in patent US10112929B2, “Lactams as inhibitors of rock” (BRISTOL-MYERS SQUIBB COMPANY, priority 2015, dated 2018).
pIC50: −log10 of the molar value. Counter-ions that a name gives are not always drawn.

Biological target: ROCK2 (Homo sapiens (Human), UniProt O75116)
Experiment: biochemical
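Note: rho kinase enzyme reaction halted with EDTA, phospho- and non-phospho peptide separated for read-out, kinase activity inhibition derived across a dose-response series, DMSO under 2%.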

Sequence of ROCK2 (O75116 whole entry, species assumed): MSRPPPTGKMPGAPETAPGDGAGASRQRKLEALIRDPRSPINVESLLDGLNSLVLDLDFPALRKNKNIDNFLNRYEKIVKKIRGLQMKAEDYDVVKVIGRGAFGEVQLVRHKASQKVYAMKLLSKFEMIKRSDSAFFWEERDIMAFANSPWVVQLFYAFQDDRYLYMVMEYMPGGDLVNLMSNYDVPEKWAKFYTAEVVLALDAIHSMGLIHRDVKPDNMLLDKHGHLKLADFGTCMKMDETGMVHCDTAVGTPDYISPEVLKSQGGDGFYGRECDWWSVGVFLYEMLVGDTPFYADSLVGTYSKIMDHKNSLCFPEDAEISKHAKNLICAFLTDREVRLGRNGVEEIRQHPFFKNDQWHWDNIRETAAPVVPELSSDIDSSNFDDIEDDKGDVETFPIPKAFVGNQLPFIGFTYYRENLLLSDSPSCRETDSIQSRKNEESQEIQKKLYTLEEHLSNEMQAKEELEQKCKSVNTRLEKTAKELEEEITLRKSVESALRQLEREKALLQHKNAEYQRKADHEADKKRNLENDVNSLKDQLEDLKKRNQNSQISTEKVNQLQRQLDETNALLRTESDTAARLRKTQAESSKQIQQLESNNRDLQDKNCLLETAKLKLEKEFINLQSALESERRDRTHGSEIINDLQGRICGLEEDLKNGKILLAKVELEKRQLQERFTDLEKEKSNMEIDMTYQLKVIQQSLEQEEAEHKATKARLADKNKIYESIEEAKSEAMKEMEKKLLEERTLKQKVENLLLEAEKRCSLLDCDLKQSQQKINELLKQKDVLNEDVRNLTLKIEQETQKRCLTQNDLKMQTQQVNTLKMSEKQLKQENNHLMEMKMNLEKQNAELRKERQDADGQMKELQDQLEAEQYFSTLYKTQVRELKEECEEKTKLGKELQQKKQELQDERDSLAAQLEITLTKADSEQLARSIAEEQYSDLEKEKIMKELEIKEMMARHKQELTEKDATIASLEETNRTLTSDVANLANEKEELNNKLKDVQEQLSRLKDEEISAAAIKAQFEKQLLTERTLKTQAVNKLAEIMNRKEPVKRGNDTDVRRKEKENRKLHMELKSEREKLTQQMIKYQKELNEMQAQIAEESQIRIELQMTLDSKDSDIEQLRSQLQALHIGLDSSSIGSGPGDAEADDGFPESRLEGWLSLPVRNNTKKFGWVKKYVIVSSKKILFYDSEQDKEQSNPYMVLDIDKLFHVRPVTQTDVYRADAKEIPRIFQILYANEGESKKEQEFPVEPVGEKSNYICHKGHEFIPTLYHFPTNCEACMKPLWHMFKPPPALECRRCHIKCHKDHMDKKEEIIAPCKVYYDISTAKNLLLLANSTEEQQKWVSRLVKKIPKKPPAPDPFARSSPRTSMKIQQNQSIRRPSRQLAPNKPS

SMILES	pIC50
COc1nc(N2CCC(N3CCCC(F)C3)C2=O)ccc1-c1cn[nH]c1 (racemic) [Example 283, 3-(3-fluoropiperidin-1-yl)-1-(6-methoxy-5-(1H-pyrazol-4-yl)pyridin-2-yl)pyrrolidin-2-one hydrochloride]	7.00 to 8.00
CCOc1cc(N2CCC(Nc3cc(F)cc(OC)c3)C2=O)ccc1-c1cn[nH]c1 (single isomer, unassigned) [Example 36, 1-(3-ethoxy-4-(1H-pyrazol-4-yl)phenyl)-3-((3-fluoro-5-methoxyphenyl)amino)pyrrolidin-2-one]	> 8.00
COc1cc(F)cc(OC2CCN(c3ccc(-c4cn[nH]c4)c(OC)n3)C2=O)c1 (single isomer, unassigned) [Example 172, 3-(3-fluoro-5-methoxyphenoxy)-1-(6-methoxy-5-(1H-pyrazol-4-yl)pyridin-2-yl)pyrrolidin-2-one]	7.00 to 8.00
COc1nc(N2CCC(N(C)C3CCN(C)CC3)C2=O)ccc1-c1cn[nH]c1 (racemic) [Example 279, 1-(6-methoxy-5-(1H-pyrazol-4-yl)pyridin-2-yl)-3-(methyl(1-methylpiperidin-4-yl)amino)pyrrolidin-2-one]	5.66 to 7.00
COc1nc(N2CCC(Nc3cccc(-c4cnco4)c3)C2=O)ccc1-c1cn[nH]c1 (racemic) [Example 262, 1-(6-methoxy-5-(1H-pyrazol-4-yl)pyridin-2-yl)-3-((3-(oxazol-5-yl)phenyl)amino) pyrrolidin-2-one]	7.00 to 8.00
COc1cc(NC2CCN(c3cc(F)c(-c4cn[nH]c4)cc3F)C2=O)ccc1F (single isomer, unassigned) [Example 350, 1-(2,5-difluoro-4-(1H-pyrazol-4-yl)phenyl)-3-((4-fluoro-3-methoxyphenyl)amino)pyrrolidin-2-one]	5.66 to 7.00
CCc1cc(N2CCC(Nc3cc(F)cc(OC)c3)C2=O)ccc1-c1cn[nH]c1 (single isomer, unassigned) [Example 246, 1-(3-ethyl-4-(1H-pyrazol-4-yl)phenyl)-3-((3-fluoro-5-methoxyphenyl)amino) pyrrolidin-2-one]	> 8.00
COc1nc(N2CCC(N3CCOC[C@H]3C)C2=O)ccc1-c1cn[nH]c1 (mixture of isomers) [Example 274, 1-(6-methoxy-5-(1H-pyrazol-4-yl)pyridin-2-yl)-3-((R)-3-methylmorpholino) pyrrolidin-2-one]	7.00 to 8.00
CCc1cc(N2CCC(Nc3ccc(F)c(OCC4CC4)c3)C2=O)ncc1-c1cn[nH]c1 (racemic) [Example 213, 3-((3-(cyclopropylmethoxy)-4-fluorophenyl)amino)-1-(4-ethyl-5-(1H-pyrazol-4-yl)pyridin-2-yl)pyrrolidin-2-one]	5.66 to 7.00
COc1nc(N2CCC(N3CC[C@H](O)C3)C2=O)ccc1-c1cn[nH]c1 (mixture of isomers) [Example 295, (3S)-3-hydroxy-1′-(6-methoxy-5-(1H-pyrazol-4-yl)pyridin-2-yl)-[l,3′-bipyrrolidin]-2′-one]	5.66 to 7.00
COc1nc(N2CCC(N3CC[C@H](F)C3)C2=O)ccc1-c1cn[nH]c1 (mixture of isomers) [Example 290, (3S)-3-fluoro-1′-(6-methoxy-5-(1H-pyrazol-4-yl)pyridin-2-yl)-[l,3′-bipyrrolidin]-2′-one hydrochloride]	5.66 to 7.00
COc1nc(N2CCC(Nc3cccc(C(N)=O)c3)C2=O)ccc1-c1cn[nH]c1 (racemic) [Example 258, 3-((1-(6-methoxy-5-(1H-pyrazol-4-yl)pyridin-2-yl)-2-oxopyrrolidin-3-yl)amino)benzamide]	> 8.00

Second part, the compound after the results:

pIC50	SMILES
7.00 to 8.00	CCc1cc(N2CCC(Nc3cccc(OC)c3)C2=O)ccc1-c1cn[nH]c1 (single isomer, unassigned) [Example 243, 1-(3-ethyl-4-(1H-pyrazol-4-yl)phenyl)-3-((3-methoxyphenyl)amino)pyrrolidin-2-one]
5.66 to 7.00	Cc1nc2ccc(NC3CCN(c4ccc(-c5cn[nH]c5)cc4)C3=O)cc2s1 (centres unmarked) [Example 115, 1-(4-(1H-pyrazol-4-yl)phenyl)-3-((2-methylbenzo[d]thiazol-6-yl)amino)pyrrolidin-2-one]
5.66 to 7.00	O=C1C(Cc2ccccc2)CCN1c1ccc(-c2cn[nH]c2)cc1 (centres unmarked) [Example 92, 1-(4-(1H-pyrazol-4-yl)phenyl)-3-benzylpyrrolidin-2-one]
7.00 to 8.00	COc1cccc2c1N(C1CCN(c3ccc(-c4cn[nH]c4)cc3)C1=O)CC2 (single isomer, unassigned) [Example 51, l-(4-(1H-pyrazol-4-yl)phenyl)-3-(7-methoxyindolin-1-yl)pyrrolidin-2-one]
5.66 to 7.00	COc1c(F)cccc1NC1CCN(c2ccc(-c3cn[nH]c3)c(F)c2)C1=O (single isomer, unassigned) [Example 337, 3-((3-fluoro-2-methoxyphenyl)amino)-1-(3-fluoro-4-(1H-pyrazol-4-yl)phenyl) pyrrolidin-2-one]
7.00 to 8.00	COc1cccc(NC2CCN(c3ccc(-c4cn[nH]c4)c(OC(F)F)c3)C2=O)c1 (single isomer, unassigned) [Example 114, 1-(3-(difluoromethoxy)-4-(1H-pyrazol-4-yl)phenyl)-3-((3-methoxyphenyl)amino)pyrrolidin-2-one]
> 8.00	COc1cccc(OC2CCN(c3ccc(-c4cn[nH]c4)c(OC)n3)C2=O)c1 (single isomer, unassigned) [Example 171, 1-(6-methoxy-5-(1H-pyrazol-4-yl)pyridin 2-yl)-3-(3-methoxyphenoxy)pyrrolidin-2-one]
5.66 to 7.00	COc1cc(NC2CCN(c3ccc(-c4cn[nH]c4)cc3Cl)C2=O)ccc1F (single isomer, unassigned) [Example 162, 1-(2-chloro-4-(1H-pyrazol-4-yl)phenyl)-3-((4-fluoro-3-methoxyphenyl)amino) pyrrolidin-2-one]
> 8.00	COc1cccc(N[C@@H]2CCN(c3ccc(-c4cn[nH]c4)cc3)C2=O)c1 [Example 383, (R)-1-(4-(1H-Pyrazol-4-yl)phenyl)-3-((3-methoxyphenyl)amino)pyrrolidin-2-one]
5.66 to 7.00	COc1ccc(N[C@@H]2CCN(c3ccc(-c4cn[nH]c4)cc3)C2=O)c(OC)c1 [Example 384, (R)-1-(4-(1H-pyrazol-4-yl)phenyl)-3-((2,4-dimethoxyphenyl)amino)pyrrolidin-2-one]
7.00 to 8.00	COc1cccc(OC2CCN(c3ccc(-c4cn[nH]c4)c(OC)n3)C2=O)c1 (single isomer, unassigned) [Example 170, 1-(6-methoxy-5-(1H-pyrazol-4-yl)pyridin 2-yl)-3-(3-methoxyphenoxy)pyrrolidin-2-one]
7.00 to 8.00	COc1ccc(F)c(OC2CCN(c3ccc(-c4cn[nH]c4)cc3)C2=O)c1 (centres unmarked) [Example 111, 1-(4-(1H-pyrazol-4-yl)phenyl)-3-(2-fluoro-5-methoxyphenoxy)pyrrolidin-2-one]
5.66 to 7.00	COc1cc(NC2CCN(c3ccc(-c4cn[nH]c4)cc3)C2=O)cc(OC)c1 (single isomer, unassigned) [Example 21, 1-(4-(1H-pyrazol-4-yl)phenyl)-3-((3,5-dimethoxyphenyl)amino)pyrrolidin-2-one]
> 8.00	COc1cc(F)cc(NC2CCN(c3ccc(-c4cn[nH]c4)cn3)C2=O)c1 (centres unmarked) [Example 82, 1-(5-(1H-pyrazol-4-yl)pyridin-2-yl)-3-((3-fluoro-5-methoxyphenyl)amino)pyrrolidin-2-one]
